Laboratory results reported in publication PMC6979384, “Characterization of the plant homeodomain (PHD) reader family for their histone tail interactions” (Epigenetics & Chromatin, 2020).

Legend:
Test in all cases: Histone peptide microarray
Type in all cases: binding, human
Conditions in all cases: total n = 4
PHF8 = test system: PHF8
Summary of the method: (§1)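 Mean ± SD of 4 replicate array intensities; GST-PHD finger at 0.5 μM against 293 PTM-bearing histone peptides.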

DIDO1 = test system: DIDO1
Summary of the method: as §1

KDM5A (1) = test system: KDM5A (1)
Summary of the method: as §1

ING3 = test system: ING3
Summary of the method: as §1

KDM5B (1) = test system: KDM5B (1)
Summary of the method: as §1

PHF23 = test system: PHF23
Summary of the method: as §1

DPF2 (PPC2W2) = test system: DPF2 (PPC2W2)
Summary of the method: as §1

BPTF (PB) = test system: BPTF (PB)
Summary of the method: as §1

ING4 = test system: ING4
Summary of the method: as §1

PHF21A = test system: PHF21A
Summary of the method: as §1

PHRF1 (RP) = test system: PHRF1 (RP)
Summary of the method: as §1

CHD4 (PPCC) = test system: CHD4 (PPCC)
Summary of the method: as §1

ING1 = test system: ING1
Summary of the method: as §1

CHD5 (PCC) = test system: CHD5 (PCC)
Summary of the method: as §1

ING2 = test system: ING2
Summary of the method: as §1

TRIM66 (PB) = test system: TRIM66 (PB)
Summary of the method: as §1

SP140L = test system: SP140L
Summary of the method: as §1

BAZ2B = test system: BAZ2B
Summary of the method: as §1

TAF3 = test system: TAF3
Summary of the method: as §1

PHF13 = test system: PHF13
Summary of the method: as §1

KDM7A = test system: KDM7A
Summary of the method: as §1

ING5 = test system: ING5
Summary of the method: as §1

PHF2 = test system: PHF2
Summary of the method: as §1

RAG2 = test system: RAG2
Summary of the method: as §1

KDM5B (3) = test system: KDM5B (3)
Summary of the method: as §1

KDM4C (TTP) = test system: KDM4C (TTP)
Summary of the method: as §1

MORC3 (CW) = test system: MORC3 (CW)
Summary of the method: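 GST-PHD reader, 0.5 μM, probed on 293-peptide histone array (single/combinatorial PTMs); optimized array protocol; signal = mean ± SD, n = 4.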

KDM5A (3) = test system: KDM5A (3)
Summary of the method: as §1

AIRE (PP) = test system: AIRE (PP)
Summary of the method: as §1

MLL5 = test system: MLL5
Summary of the method: as §1

CHD5 (PPCC) = test system: CHD5 (PPCC)
Summary of the method: as §1

[1] = sheet "Array Heatmap", GST-tagged reader, histone peptide array

H3K4me3 + T6p: H3 1-20
Array Heatmap signal, PHF8 (PHF8; [1]): 0.3678
Array Heatmap signal, DIDO1 (DIDO1; [1]): 0.7585
Array Heatmap signal, KDM5A (1) (KDM5A (1); [1]): 0.452
Array Heatmap signal, ING3 (ING3; [1]): 0.4695
Array Heatmap signal, KDM5B (1) (KDM5B (1); [1]): 0.6162
Array Heatmap signal, PHF23 (PHF23; [1]): 0.5195
Array Heatmap signal, DPF2 (PPC2W2) (DPF2 (PPC2W2); [1]): 0.6833
Array Heatmap signal, BPTF (PB) (BPTF (PB); [1]): 0.3519
Array Heatmap signal, ING4 (ING4; [1]): 0.4567
Array Heatmap signal, PHF21A (PHF21A; [1]): 0.4225
Array Heatmap signal, PHRF1 (RP) (PHRF1 (RP); [1]): 0.5056
Array Heatmap signal, CHD4 (PPCC) (CHD4 (PPCC); [1]): 0.5535
Array Heatmap signal, ING1 (ING1; [1]): 0.5971
Array Heatmap signal, CHD5 (PCC) (CHD5 (PCC); [1]): 0.7037
Array Heatmap signal, ING2 (ING2; [1]): 0.6187
Array Heatmap signal, TRIM66 (PB) (TRIM66 (PB); [1]): 0.549
Array Heatmap signal, SP140L (SP140L; [1]): 0.3667
Array Heatmap signal, BAZ2B (BAZ2B; [1]): 0.4415
Array Heatmap signal, TAF3 (TAF3; [1]): 0.309
Array Heatmap signal, PHF13 (PHF13; [1]): 0.5795
Array Heatmap signal, KDM7A (KDM7A; [1]): 0.3405
Array Heatmap signal, ING5 (ING5; [1]): 0.3481
Array Heatmap signal, PHF2 (PHF2; [1]): 0.6668
Array Heatmap signal, RAG2 (RAG2; [1]): 0.2443
Array Heatmap signal, KDM5B (3) (KDM5B (3); [1]): 0.4934
Array Heatmap signal, KDM4C (TTP) (KDM4C (TTP); [1]): 0.4688
Array Heatmap signal, MORC3 (CW) (MORC3 (CW); [1]): 0.3571
Array Heatmap signal, KDM5A (3) (KDM5A (3); [1]): 0.4911
Array Heatmap signal, AIRE (PP) (AIRE (PP); [1]): 0.4133
Array Heatmap signal, MLL5 (MLL5; [1]): 0.5684
Array Heatmap signal, CHD5 (PPCC) (CHD5 (PPCC); [1]): 0.54

H3K4me3R8me2a: H3 1-20
Array Heatmap value (peptide array signal) (PHF8; PHF8, sheet "Array Heatmap", each array performed twice): 0.377
Array Heatmap value (peptide array signal) (DIDO1; DIDO1, sheet "Array Heatmap", each array performed twice): 0.6362
Array Heatmap value (peptide array signal) (KDM5A (1); KDM5A (1), sheet "Array Heatmap", each array performed twice): 0.3616
Array Heatmap value (peptide array signal) (ING3; ING3, sheet "Array Heatmap", each array performed twice): 0.4064
Array Heatmap value (peptide array signal) (KDM5B (1); KDM5B (1), sheet "Array Heatmap", each array performed twice): 0.5478
Array Heatmap value (peptide array signal) (PHF23; PHF23, sheet "Array Heatmap", each array performed twice): 0.5109
Array Heatmap value (peptide array signal) (DPF2 (PPC2W2); DPF2 (PPC2W2), sheet "Array Heatmap", each array performed twice): 0.6137
Array Heatmap value (peptide array signal) (BPTF (PB); BPTF (PB), sheet "Array Heatmap", each array performed twice): 0.2864
Array Heatmap value (peptide array signal) (ING4; ING4, sheet "Array Heatmap", each array performed twice): 0.3653
Array Heatmap value (peptide array signal) (PHF21A; PHF21A, sheet "Array Heatmap", each array performed twice): 0.4017
Array Heatmap value (peptide array signal) (PHRF1 (RP); PHRF1 (RP), sheet "Array Heatmap", each array performed twice): 0.4161
Array Heatmap value (peptide array signal) (CHD4 (PPCC); CHD4 (PPCC), sheet "Array Heatmap", each array performed twice): 0.4923
Array Heatmap value (peptide array signal) (ING1; ING1, sheet "Array Heatmap", each array performed twice): 0.5333
Array Heatmap value (peptide array signal) (CHD5 (PCC); CHD5 (PCC), sheet "Array Heatmap", each array performed twice): 0.6343
Array Heatmap value (peptide array signal) (ING2; ING2, sheet "Array Heatmap", each array performed twice): 0.6387
Array Heatmap value (peptide array signal) (TRIM66 (PB); TRIM66 (PB), sheet "Array Heatmap", each array performed twice): 0.5377
Array Heatmap value (peptide array signal) (SP140L; SP140L, sheet "Array Heatmap", each array performed twice): 0.3243
Array Heatmap value (peptide array signal) (BAZ2B; BAZ2B, sheet "Array Heatmap", each array performed twice): 0.3334
Array Heatmap value (peptide array signal) (TAF3; TAF3, sheet "Array Heatmap", each array performed twice): 0.2483
Array Heatmap value (peptide array signal) (PHF13; PHF13, sheet "Array Heatmap", each array performed twice): 0.5067
Array Heatmap value (peptide array signal) (KDM7A; KDM7A, sheet "Array Heatmap", each array performed twice): 0.3319
Array Heatmap value (peptide array signal) (ING5; ING5, sheet "Array Heatmap", each array performed twice): 0.2674
Array Heatmap value (peptide array signal) (PHF2; PHF2, sheet "Array Heatmap", each array performed twice): 0.5013
Array Heatmap value (peptide array signal) (RAG2; RAG2, sheet "Array Heatmap", each array performed twice): 0.2561
Array Heatmap value (peptide array signal) (KDM5B (3); KDM5B (3), sheet "Array Heatmap", each array performed twice): 0.4037
Array Heatmap value (peptide array signal) (KDM4C (TTP); KDM4C (TTP), sheet "Array Heatmap", each array performed twice): 0.39
Array Heatmap value (peptide array signal) (MORC3 (CW); MORC3 (CW), sheet "Array Heatmap", each array performed twice): 0.4123
Array Heatmap value (peptide array signal) (KDM5A (3); KDM5A (3), sheet "Array Heatmap", each array performed twice): 0.5067
Array Heatmap value (peptide array signal) (AIRE (PP); AIRE (PP), sheet "Array Heatmap", each array performed twice): 0.3453
Array Heatmap value (peptide array signal) (MLL5; MLL5, sheet "Array Heatmap", each array performed twice): 0.5116
Array Heatmap value (peptide array signal) (CHD5 (PPCC); CHD5 (PPCC), sheet "Array Heatmap", each array performed twice): 0.4208

H3K9ac + K14ac + K18ac: H3 1-20
Array Heatmap signal (histone peptide microarray) (PHF8; GST-tagged PHF8, sheet Array Heatmap, each array performed twice): 0.3679
Array Heatmap signal (histone peptide microarray) (DIDO1; GST-tagged DIDO1, sheet Array Heatmap, each array performed twice): 0.777
Array Heatmap signal (histone peptide microarray) (KDM5A (1); GST-tagged KDM5A (1), sheet Array Heatmap, each array performed twice): 0.4668
Array Heatmap signal (histone peptide microarray) (ING3; GST-tagged ING3, sheet Array Heatmap, each array performed twice): 0.4687
Array Heatmap signal (histone peptide microarray) (KDM5B (1); GST-tagged KDM5B (1), sheet Array Heatmap, each array performed twice): 0.5879
Array Heatmap signal (histone peptide microarray) (PHF23; GST-tagged PHF23, sheet Array Heatmap, each array performed twice): 0.5614
Array Heatmap signal (histone peptide microarray) (DPF2 (PPC2W2); GST-tagged DPF2 (PPC2W2 = Dual PHD + C2W2-type Zn-finger), sheet Array Heatmap, each array performed twice): 0.8971
Array Heatmap signal (histone peptide microarray) (BPTF (PB); GST-tagged BPTF (PB = PHD + Bromodomain), sheet Array Heatmap, each array performed twice): 0.3483
Array Heatmap signal (histone peptide microarray) (ING4; GST-tagged ING4, sheet Array Heatmap, each array performed twice): 0.4438
Array Heatmap signal (histone peptide microarray) (PHF21A; GST-tagged PHF21A, sheet Array Heatmap, each array performed twice): 0.4657
Array Heatmap signal (histone peptide microarray) (PHRF1 (RP); GST-tagged PHRF1 (RP), sheet Array Heatmap, each array performed twice): 0.8654
Array Heatmap signal (histone peptide microarray) (CHD4 (PPCC); GST-tagged CHD4 (PPCC = Dual PHD + Dual Chromodomain), sheet Array Heatmap, each array performed twice): 0.6424
Array Heatmap signal (histone peptide microarray) (ING1; GST-tagged ING1, sheet Array Heatmap, each array performed twice): 0.5813
Array Heatmap signal (histone peptide microarray) (CHD5 (PCC); GST-tagged CHD5 (PCC = PHD + Dual Chromodomain), sheet Array Heatmap, each array performed twice): 0.8362
Array Heatmap signal (histone peptide microarray) (ING2; GST-tagged ING2, sheet Array Heatmap, each array performed twice): 0.62
Array Heatmap signal (histone peptide microarray) (TRIM66 (PB); GST-tagged TRIM66 (PB = PHD + Bromodomain), sheet Array Heatmap, each array performed twice): 0.7029
Array Heatmap signal (histone peptide microarray) (SP140L; GST-tagged SP140L, sheet Array Heatmap, each array performed twice): 0.346
Array Heatmap signal (histone peptide microarray) (BAZ2B; GST-tagged BAZ2B, sheet Array Heatmap, each array performed twice): 0.6427
Array Heatmap signal (histone peptide microarray) (TAF3; GST-tagged TAF3, sheet Array Heatmap, each array performed twice): 0.2816
Array Heatmap signal (histone peptide microarray) (PHF13; GST-tagged PHF13, sheet Array Heatmap, each array performed twice): 0.5825
Array Heatmap signal (histone peptide microarray) (KDM7A; GST-tagged KDM7A, sheet Array Heatmap, each array performed twice): 0.3112
Array Heatmap signal (histone peptide microarray) (ING5; GST-tagged ING5, sheet Array Heatmap, each array performed twice): 0.3256
Array Heatmap signal (histone peptide microarray) (PHF2; GST-tagged PHF2, sheet Array Heatmap, each array performed twice): 0.5699
Array Heatmap signal (histone peptide microarray) (RAG2; GST-tagged RAG2, sheet Array Heatmap, each array performed twice): 0.2782
Array Heatmap signal (histone peptide microarray) (KDM5B (3); GST-tagged KDM5B (3), sheet Array Heatmap, each array performed twice): 0.4869
Array Heatmap signal (histone peptide microarray) (KDM4C (TTP); GST-tagged KDM4C (TTP = Tandem Tudor domain + PHD), sheet Array Heatmap, each array performed twice): 0.4368
Array Heatmap signal (histone peptide microarray) (MORC3 (CW); GST-tagged MORC3 (CW = CW-type Zn-finger), sheet Array Heatmap, each array performed twice): 0.5442
Array Heatmap signal (histone peptide microarray) (KDM5A (3); GST-tagged KDM5A (3), sheet Array Heatmap, each array performed twice): 0.5902
Array Heatmap signal (histone peptide microarray) (AIRE (PP); GST-tagged AIRE (PP), sheet Array Heatmap, each array performed twice): 0.4138
Array Heatmap signal (histone peptide microarray) (MLL5; GST-tagged MLL5, sheet Array Heatmap, each array performed twice): 0.5367
Array Heatmap signal (histone peptide microarray) (CHD5 (PPCC); GST-tagged CHD5 (PPCC = Dual PHD + Dual Chromodomain), sheet Array Heatmap, each array performed twice): 0.5238
